Source: patent US12636319B2, “Pharmaceutical composition for preventing or treating atopic disease containing Akkermansia muciniphila strain” (ENTEROBIOME INC., priority 2020, dated 2026)
In brackets after ≈: the same amount, converted by molar mass.

Assays:
[1] = system: Bacteroides thetiotaomicron ATCC 29741; test: MIC by CLSI broth microdilution, QC strain; format: cell-based
[2] = system: Akkermansia muciniphila EB-AMDK19; test: MIC by CLSI broth microdilution, isolated strain; format: cell-based; details: EBAMDK19, test strain EB-AMDK19
[3] = system: Akkermansia muciniphila ATCC BAA-835; test: MIC by CLSI broth microdilution, type strain; format: cell-based; details: ATCCBAA835, test strain ATCC BAA-835
[4] = system: DNCB-induced atopic dermatitis in NC/Nga mice; test: Scratching frequency in DNCB-induced atopic dermatitis; format: in vivo, mouse; details: scratching for 10 minutes, day before end; compared to the atopic dermatitis-induced group
Description: (§1) The Akkermansia muciniphila ATCC BAA-835 strain and Akkermansia muciniphila EB-AMDK19 live bacteria used in this experiment were prepared at a concentration of 1×10^8 CFU/150 μl PBS (25% glycerol, 0.05% cysteine/PBS).
(§2) To observe atopic dermatitis lesions, 6-week-old NC/Nga mice (weighed about 21 to 25 g, SLC, Inc., Japan) were purchased from Daehan Biolink Co., Ltd. (Chungbuk, Korea). Animal tests were carried out in accordance with the Animal use and Care Protocol of the Institutional Animal Care and Use Committee (IACUC). The animals were acclimated for one week, and then raised for 9 weeks at a constant temperature of 22° C. and a relative humidity of 50 to 60% with a 12-hr light/12-hr dark cycle.
(§3) The backs of 6-week-old NC/Nga mice were shaved clean, and then left to stand for 24 hours so that fine wounds of the skin were healed. 1% 2,4-dinitrochlorobenzene (DNCB) solution (Sigma-Aldrich Korea) was applied to the back of each mouse twice a week for 3 weeks to induce an immune response, and then 0.5% DNCB solution was applied twice a week to induce contact dermatitis. […]
The day before the end of the experiment, the frequency of scratching the affected area due to itching was measured. For measurement of the frequency of scratching, each mouse was acclimated for 10 minutes, and then the frequency of scratching for 10 minutes was measured using a counter.

[5] = system: DNCB-induced atopic dermatitis in NC/Nga mice; test: Ear edema (ear thickness) in DNCB-induced atopic dermatitis; format: in vivo, mouse; details: at 6 weeks; normal group 0.55 mm, atopic dermatitis-induced group 1.50 mm
Description: as §1, §2, §3
After severe atopic dermatitis was induced, the mice after completion of the experiment were sacrificed by anesthetizing with CO2, and then the degree of edema of both ears was measured by the velocity transformation technique using a thickness gauge (Digimatic thickness gauge, 547-301, Mitutoyo, Japan).

[6] = system: DNCB-induced atopic dermatitis in NC/Nga mice; test: Dermatitis score (modified SCORAD) in DNCB-induced atopic dermatitis; format: in vivo, mouse; details: week 6, compared to the atopic dermatitis-induced group; oral daily
Description: as §1, §2
(§4) The backs of 6-week-old NC/Nga mice were shaved clean, and then left to stand for 24 hours so that fine wounds of the skin were healed. […]
After atopic dermatitis was induced by DNCB, treatment was performed by administering a preparation containing each of dexamethasone (DEX), the ATCC BAA-835 strain and the EB-AMDK19 strain for 6 weeks. […] Skin dryness, edema, erythema/hemorrhage, and erosion/excoriation were scored as follows: no symptoms=0, weak symptoms=1, moderate symptoms=2, and severe symptoms=3.

IgE = test: Serum IgE concentration by ELISA; format: in vivo, mouse
Description: as §1, §2, §3
At the end of the experiment, each of the mice was anesthetized with CO2 and blood was collected by cardiac puncture. The collected blood was centrifuged at 10,000 rpm for 5 minutes to separate the serum, and the serum IgE concentration was measured. […]

Th2/Th1 cytokines = test: Ratio of Th2/Th1 serum cytokines; format: in vivo, mouse; details: compared to the atopic dermatitis-induced group
Description: as §1
as §2, with “cycle. […]” for “cycle.”
At the end of the experiment, the mice were anesthetized with CO2, and blood was collected by cardiac puncture. […] The concentrations of IL-4, IL-12, IFN-γ and IL-6 cytokines were measured using an ELISA kit (Invitrogen, CA, USA), and the results of the measurement are shown in FIGS. 17(A), 17(B), 18(A), and 18(B).
From an immunological point of view, atopic dermatitis is a disease caused by an excessive imbalance between Th1 and Th2 immune responses. Thus, the cytokine concentrations measured as described above were expressed as the ratio of Th2/Th1 cytokines, and the results are shown in FIGS. 19(A), 19(B), 20(A), and 20(B).

[7] = system: DNCB-induced atopic dermatitis in NC/Nga mice; test: Spleen weight in DNCB-induced atopic dermatitis; format: in vivo, mouse; details: end of experiment; compared to the atopic dermatitis-induced group
Description: as §1, §2, §4
Thus, the weight of the spleen was measured to observe the effect of the composition for preventing atopic dermatitis on the immune organs of NC/Nga mice with atopic dermatitis induced by DNCB. […] The collected spleen tissues were washed with physiological saline, and then the sizes thereof were visually observed and the weights thereof were measured using a microbalance.

Molecule | MIC ([1]; Bacteroides, ATCC29741) [µg/mL] | MIC [2] [µg/mL] | MIC [3] [µg/mL] | other results
C[C@@H](O)[C@H]1C(=O)N2C(C(=O)O)=C(S[C@@H]3CN[C@H](C(=O)N(C)C)C3)[C@H](C)[C@H]12 [MEM, meropenem] | 0.5 (≈ 1.3 µM) | 0.5 (≈ 1.3 µM) | 1 (≈ 2.61 µM) | –
C[C@@H]1C[C@H]2[C@@H]3CCC4=CC(=O)C=C[C@]4(C)[C@@]3(F)[C@@H](O)C[C@]2(C)[C@@]1(O)C(=O)CO [DEX, dexamethasone] | – | – | – | decrease in scratching frequency [4]: about 59.4%; ear edema [5]: 1.00 mm; decrease in dermatitis score [6]: 38.4%; serum IgE decrease (IgE; compared to the atopic dermatitis-induced group): 40.70%; serum IgE concentration (IgE; end of experiment, ELISA): 11891.34 ng/mL; decrease of IL-6/IFN-γ ratio (Th2/Th1 cytokines): 12.7%; decrease of IL-6/IL-12 ratio (Th2/Th1 cytokines): 34.5%; decrease in spleen weight [7]: 23.3%
CCC[C@@H]1C[C@@H](C(=O)N[C@@H]([C@H]2O[C@H](SC)[C@H](O)[C@@H](O)[C@H]2O)[C@H](C)Cl)N(C)C1 [CLI, clindamycin] | – | 4 (≈ 9.41 µM) | ≤ 0.125 | –
Cc1ncc([N+](=O)[O-])n1CCO [MTZ, metronidazole] | 2 (≈ 11.7 µM) | 0.5 (≈ 2.92 µM) | ≤ 0.25 | –
Piperacillin-tazobactam [PTZ] | – | – | – | MIC ([1]; QC strain ATCC 29741, broth microdilution, CLSI): 8/4
COc1c(N2C[C@@H]3CCCN[C@@H]3C2)c(F)cc2c(=O)c(C(=O)O)cn(C3CC3)c12 [MXF, moxifloxacin] | 8 (≈ 19.9 µM) | > 32 | > 32 | –
O=C(N[C@H](CO)[C@H](O)c1ccc([N+](=O)[O-])cc1)C(Cl)Cl [CHL, chloramphenicol] | 8 (≈ 24.8 µM) | 4 (≈ 12.4 µM) | 4 (≈ 12.4 µM) | –
CO/N=C(\C(=O)N[C@@H]1C(=O)N2C(C(=O)O)=CCS[C@H]12)c1csc(N)n1 [CTZ, ceftizoxime] | 16 (≈ 41.7 µM) | 1 (≈ 2.61 µM) | 2 (≈ 5.22 µM) | –
